Data reported in patent US12252492B2, “Substituted fused pyrrolo-diazepinones and uses thereof” (Northwestern University, priority 2018, dated 2025).

Experiments:
Assay type in all cases: cell-based, human
[1] = system: EKVX; assay: NCI60 one-dose screen, EKVX; conditions: EKVX (Non-Small Cell Lung Cancer); NCI 60 one-dose, 10^-5 M
Description: (§1) Anti-cancer activity screening of all compounds was performed by the NCI Developmental Therapeutics Program (DTP) through their NCI60 screening initiative. Assay details can be found at the website dtp.cancer.gov/discovery_development/nci-60/methodology.htm. Information from this website is reproduced here for convenience.
(§2) As of early 2007 all compounds submitted to the NCI 60 Cell screen are tested initially at a single high dose (10^-5 M) in the full NCI 60 cell panel. Only compounds which satisfy pre-determined threshold inhibition criteria in a minimum number of cell lines will progress to the full 5-dose assay. The threshold inhibition criteria for progression to the 5-dose screen was selected to efficiently capture compounds with anti-proliferative activity based on careful analysis of historical DTP screening data. The threshold criteria may be updated as additional data becomes available.
(§3) The One-dose data will be reported as a mean graph of the percent growth of treated cells and will be similar in appearance to mean graphs from the 5-dose assay. […]
(§4) Following drug addition, the plates are incubated for an additional 48 h at 37° C., 5% CO2, 95% air, and 100% relative humidity. […] Bound stain is subsequently solubilized with 10 mM trizma base, and the absorbance is read on an automated plate reader at a wavelength of 515 nm. […]

[2] = system: HOP-92; assay: NCI60 one-dose screen, HOP-92; conditions: HOP-92 (Non-Small Cell Lung Cancer); NCI 60 one-dose, 10^-5 M
Description: as §1, §2, §3, §4

[3] = system: OVCAR-4; assay: NCI60 one-dose screen, OVCAR-4; conditions: OVCAR-4 (Ovarian Cancer); NCI 60 one-dose, 10^-5 M
Description: as §1, §2, §3, §4

[4] = system: SK-MEL-2; assay: NCI60 one-dose screen, SK-MEL-2; conditions: SK-MEL-2 (Melanoma); NCI 60 one-dose, 10^-5 M
Description: as §1, §2, §3, §4

[5] = system: MDA-MB-435; assay: NCI60 one-dose screen, MDA-MB-435; conditions: MDA-MB-435 (Melanoma); NCI 60 one-dose, 10^-5 M
Description: as §1, §2, §3, §4

[6] = system: OVCAR-8; assay: NCI60 one-dose screen, OVCAR-8; conditions: OVCAR-8 (Ovarian Cancer); NCI 60 one-dose, 10^-5 M
Description: as §1, §2, §3, §4

[7] = system: HS 578T; assay: NCI60 one-dose screen, HS 578T; conditions: HS 578T (Breast Cancer); NCI 60 one-dose, 10^-5 M
Description: as §1, §2, §3, §4

[8] = system: A549/ATCC; assay: NCI60 one-dose screen, A549; conditions: A549/ATCC (Non-Small Cell Lung Cancer); NCI 60 one-dose, 10^-5 M
Description: as §1, §2
The One-dose data will be reported as a mean graph of the percent growth of treated cells and will be similar in appearance to mean graphs from the 5-dose assay. The number reported for the One-dose assay is growth relative to the no-drug control, and relative to the time zero number of cells. This allows detection of both growth inhibition (values between 0 and 100) and lethality (values less than 0). This is the same as for the 5-dose assay, described below. For example, a value of 100 means no growth inhibition. A value of 40 would mean 60% growth inhibition. A value of 0 means no net growth over the course of the experiment. A value of −40 would mean 40% lethality. A value of −100 means all cells are dead. Information from the One-dose mean graph is available for COMPARE analysis.
The human tumor cell lines of the cancer screening panel are grown in RPMI 1640 medium containing 5% fetal bovine serum and 2 mM L-glutamine. For a typical screening experiment, cells are inoculated into 96 well microtiter plates in 100 μL at plating densities ranging from 5,000 to 40,000 cells/well depending on the doubling time of individual cell lines. After cell inoculation, the microtiter plates are incubated at 37° C., 5% CO2, 95% air and 100% relative humidity for 24 h prior to addition of experimental drugs.
After 24 h, two plates of each cell line are fixed in situ with TCA, to represent a measurement of the cell population for each cell line at the time of drug addition (Tz). Experimental drugs are solubilized in dimethyl sulfoxide at 400-fold the desired final maximum test concentration and stored frozen prior to use. At the time of drug addition, an aliquot of frozen concentrate is thawed and diluted to twice the desired final maximum test concentration with complete medium containing 50 μg/ml gentamicin. Additional four, 10-fold or ½ log serial dilutions are made to provide a total of five drug concentrations plus control. Aliquots of 100 μl of these different drug dilutions are added to the appropriate microtiter wells already containing 100 μl of medium, resulting in the required final drug concentrations.
Following drug addition, the plates are incubated for an additional 48 h at 37° C., 5% CO2, 95% air, and 100% relative humidity. For adherent cells, the assay is terminated by the addition of cold TCA. Cells are fixed in situ by the gentle addition of 50 μl of cold 50% (w/v) TCA (final concentration, 10% TCA) and incubated for 60 minutes at 4° C. The supernatant is discarded, and the plates are washed five times with tap water and air dried. Sulforhodamine B (SRB) solution (100 μl) at 0.4% (w/v) in 1% acetic acid is added to each well, and plates are incubated for 10 minutes at room temperature. After staining, unbound dye is removed by washing five times with 1% acetic acid and the plates are air dried. Bound stain is subsequently solubilized with 10 mM trizma base, and the absorbance is read on an automated plate reader at a wavelength of 515 nm. […]

[9] = system: HL-60(TB); assay: NCI60 one-dose screen, HL-60(TB); conditions: HL-60(TB) (Leukemia); NCI 60 one-dose, 10^-5 M
Description: as §1, §2, §3, §4

[10] = system: M14; assay: NCI60 one-dose screen, M14; conditions: M14 (Melanoma); NCI 60 one-dose, 10^-5 M
Description: as §1, §2, §3, §4

[11] = system: K-562; assay: NCI60 one-dose screen, K-562; conditions: K-562 (Leukemia); NCI 60 one-dose, 10^-5 M
Description: as §1, §2, §3, §4

[12] = system: NCI-H322M; assay: NCI60 one-dose screen, NCI-H322M; conditions: NCI-H322M (Non-Small Cell Lung Cancer); NCI 60 one-dose, 10^-5 M
Description: as §1, §2, §3, §4

[13] = system: OVCAR-5; assay: NCI60 one-dose screen, OVCAR-5; conditions: OVCAR-5 (Ovarian Cancer); NCI 60 one-dose, 10^-5 M
Description: as §1, §2, §3, §4

[14] = system: NCI-H460; assay: NCI60 one-dose screen, NCI-H460; conditions: NCI-H460 (Non-Small Cell Lung Cancer); NCI 60 one-dose, 10^-5 M
Description: as §1, §2, §3, §4

[15] = system: SN12C; assay: NCI60 one-dose screen, SN12C; conditions: SN12C (Renal Cancer); NCI 60 one-dose, 10^-5 M
Description: as §1, §2, §3, §4

[16] = system: CCRF-CEM; assay: NCI60 one-dose screen, CCRF-CEM; conditions: CCRF-CEM (Leukemia); NCI 60 one-dose, 10^-5 M
Description: as §1, §2, §3, §4

[17] = system: MCF7; assay: NCI60 one-dose screen, MCF7; conditions: MCF7 (Breast Cancer); NCI 60 one-dose, 10^-5 M
Description: as §1, §2, §3, §4

[18] = system: CAKI-1; assay: NCI60 one-dose screen, CAKI-1; conditions: CAKI-1 (Renal Cancer); NCI 60 one-dose, 10^-5 M
Description: as §1, §2, §3, §4

SMILES | Growth Percent [1] [%] | Growth Percent [2] [%] | Growth Percent [3] [%] | Growth Percent [4] [%] | Growth Percent [5] [%] | Growth Percent [6] [%] | Growth Percent [7] [%] | Growth Percent [8] [%] | Growth Percent [9] [%] | Growth Percent [10] [%] | Growth Percent [11] [%] | Growth Percent [12] [%] | Growth Percent [13] [%] | Growth Percent [14] [%] | Growth Percent [15] [%] | Growth Percent [16] [%] | Growth Percent [17] [%] | Growth Percent [18] [%]
CC(=O)N1c2ccccc2NC2=C(C(=O)N(C)C2(C)C)C1c1ccccc1 (stereo not drawn) [NUCC-60872] | 61.53 | 37.54 | 55.16 | 8.92 | −67.83 | 65.84 | 20.42 | 80.32 | 7.50 | 21.48 | 16.57 | 73.36 | 62.50 | 21.87 | 40.74 | 20.66 | 16.41 | 71.91
CC(=O)N1c2ccccc2NC2=C(C(=O)N(Cc3ccccc3)C2(C)C)C1c1ccco1 (stereo not drawn) [NUCC-608455] | 35.37 | 21.07 | 48.83 | 16.91 | −56.24 | 26.13 | 10.67 | 22.02 | 9.63 | −13.58 | 12.60 | 44.61 | 25.92 | 4.83 | 35.91 | 24.15 | 15.26 | 42.97
